One data set has as its system mutant IDH1. Conditions: AML or MDS patients carrying IDH1 gene mutations, Phase I; cited from earlier work.
In data set [1] the target is T1, IDH1^R132H (Homo sapiens, UniProt O75874, R132H). Nature of the data set: Enzyme activity inhibition assay (fluorescence-based), IDH1 R132H. The class given is biochemical. As for the experimental part: (§1) The inhibitory ability of the compounds on the enzyme activities of IDH1^R132H and IDH2^R140Qwas detected and expressed as the half inhibitory concentration (IC50) value. AG-881 was used as a positive control compound. In this experiment, compounds were screened on enzymes IDH1^R132H and IDH2^R140Q using a fluorescence-based method (initial concentration: 10000 nM, 3-fold dilution, 10 concentrations, and single-well detection). • (1) Preparation of 1×assay buffer. • (2) Preparation of compound concentration gradient: the compounds to be tested were assayed at an initial concentration of 10000 nM, with 3-fold dilution and 10 concentrations, and diluted into 200-fold the final concentration in 100% DMSO solution in a 384-well plate. • (3) 250 nL of DMSO and 250 nL of diluted compounds were transferred to a reaction plate with Echo 550. • (4) IDH2^R140Q enzyme detection: 25 μL of an IDH2^R140Q enzyme solution was added, and the mixture was incubated for 60 minutes; then 25 μL of a substrate solution was added, and the mixture was incubated for 150 minutes; then 25 μL of a detection buffer was added, and the mixture was shaken for 1 minute and incubated for 60 minutes; and finally, Synergy 2, Ex544/Em590 cutoff 590 was used for reading. • (5) IDH1^R132H enzyme detection: 40 μL of a mixture solution of an IDH1^R132H enzyme at the 1.25-fold final concentration and NADPH was added, and the mixture was incubated for 60 minutes; then 10 μL of a substrate solution at the 5-fold final concentration was added, and the mixture was incubated for 90 minutes; then 25 μL of a detection buffer at the 3-fold final concentration was added, and the mixture was shaken for 1 minute. and finally, Synergy 2, Ex544/Em590 cutoff 590 was used for reading. • (8) Inhibition rate calculation, formula: % Inhibition=(RFU_sample−RFU_min)/(RFU_max−RFU_min)*100%, wherein RFU-sample represents the fluorescence intensity of a sample; RFU-min represents the average value of negative control wells and represents the fluorescence intensity with an enzyme; and RFU-max represents the average value of positive control wells and represents the fluorescence intensity without an enzyme. The curve fitting was performed using Graphpad Prism software to obtain IC50 values, and the test results were as shown in table 2.
T1 sequence (O75874 whole entry R132H): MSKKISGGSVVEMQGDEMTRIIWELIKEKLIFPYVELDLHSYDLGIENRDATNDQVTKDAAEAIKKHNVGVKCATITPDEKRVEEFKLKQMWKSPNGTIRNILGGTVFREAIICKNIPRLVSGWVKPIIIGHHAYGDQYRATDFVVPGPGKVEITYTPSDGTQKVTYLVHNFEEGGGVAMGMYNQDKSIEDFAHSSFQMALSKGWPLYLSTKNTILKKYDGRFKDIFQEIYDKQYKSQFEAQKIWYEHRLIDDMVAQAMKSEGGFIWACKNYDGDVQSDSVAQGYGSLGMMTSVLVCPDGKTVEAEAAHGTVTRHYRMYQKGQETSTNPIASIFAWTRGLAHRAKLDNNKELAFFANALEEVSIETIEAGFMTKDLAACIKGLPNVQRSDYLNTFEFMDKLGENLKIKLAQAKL

The target in data set [2] is T1, IDH1^R132H. Nature of the data set: 2-HG assay in cells (U87 cell line stably transfected with IDH1-R132H). The format is cell-based. Particulars: 72 hours, read-out: 2-HG in medium (IC50, nM) (IDH1^R132H). The procedure: The compounds were detected for the inhibition of 2-HG production in the U87 cell line stably transfected with IDH1-R132H and the culture supernatant of TF-1 cells stably transfected with IDH2-R140Q. • (1) The cultured cells were collected by centrifugation, then suspended in a cell culture solution, counted, and seeded in a 96-well cell culture plate at 160 μL of cell suspension/well (20000 cells/well for U87-IDH1-R132H; 10000 cells/well for TF-1-IDH2-R140Q). • (2) A 96-well plate dilution was taken, and the compounds to be tested were diluted in a gradient manner in DMSO and a cell culture solution; and then 40 μL of the gradient-diluted compounds to be tested were added to the 96-well plate on which cells have been plated. […] Finally, the plate was cultured in a 37° C. incubator containing 5% CO2. • (3) After the compounds were incubated with the cells for 72 hours, the cell culture plate was taken out and centrifuged at 1500 rpm for 5 minutes, and then 100 μL of the medium supernatant was aspirated for 2-HG detection. • (4) 2-HG detection: the cell supernatant was diluted with purified water, 30 μL of the diluted sample was taken into a 1.5 ml centrifuge tube, and 200 μL of the internal standard solution was added. The mixture was mixed uniformly by vortex and centrifuged at 3200 rpm at 4° C. for 15 minutes. 100 μL of the supernatant solution was diluted with water at a 1:1 ratio and then detected by LC-MS. Analyte Peak Area was used to represent the 2-HG levels. • (5) Inhibition rate calculation, formula: % Inhibition=(1−Analyte Peak Area_sample/Analyte Peak Area_max)*100%, wherein Analyte Peak Area_sample represents the Analyte Peak Area of the sample to which the compound was added; Analyte Peak Area_max represents the average value of Analyte Peak Area of positive control wells (representing the absence of the compound). The curve fitting was performed using Graphpad Prism software to obtain IC50 values, and the test results were as shown in table 2.

A further data set has as its target T2, IDH2^R140Q (Homo sapiens, UniProt P48735, R140Q).
T2 sequence (P48735 40-452 R140Q): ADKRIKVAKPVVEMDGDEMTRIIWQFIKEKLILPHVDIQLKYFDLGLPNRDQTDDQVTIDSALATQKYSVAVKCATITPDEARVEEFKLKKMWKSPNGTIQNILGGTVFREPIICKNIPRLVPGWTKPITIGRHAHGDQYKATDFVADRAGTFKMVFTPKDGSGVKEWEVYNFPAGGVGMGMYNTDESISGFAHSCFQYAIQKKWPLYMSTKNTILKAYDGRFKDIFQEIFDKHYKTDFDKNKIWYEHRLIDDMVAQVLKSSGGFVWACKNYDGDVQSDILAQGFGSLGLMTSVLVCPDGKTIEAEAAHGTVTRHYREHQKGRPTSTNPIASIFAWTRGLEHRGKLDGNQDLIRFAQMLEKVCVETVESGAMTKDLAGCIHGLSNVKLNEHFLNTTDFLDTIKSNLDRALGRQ
Nature of the data set: Enzyme activity inhibition assay (fluorescence-based), IDH2 R140Q. The class given is biochemical. As for the experimental part:
as §1

The nature of data set [3]: Pharmacokinetic detection in dogs. The format is in vivo. Conditions: beagle dogs. The procedure: Adult beagle dogs (6-12 months of age) received a single dose of the compounds to be tested via intravenous administration (IV) or oral gavage administration (PO), respectively. In the IV single dose, 5% DMSO+5% Solutol+90% physiological saline was used as the excipient; the intravenous administration was carried out at a dose of 1 mg/kg (2 females and 2 males); and the venous blood collection time was 5 min, 15 min, 0.5 h, 1 h, 2 h, 4 h, 6 h, 8 h, 10 h and 24 h. In the PO single dose, 5% DMSO+5% Solutol+90% purified water was used as the excipient; the oral gavage administration was carried out at a dose of 5 mg/kg (2 females and 2 males); and the blood collection time was 15 min, 0.5 h, 1 h, 2 h, 4 h, 6 h, 8 h, 10 h and 24 h. Blood samples were collected in tubes containing EDTA anticoagulants and centrifuged at 4000 rpm at 4° C. for 10 min, and the supernatants were transferred to centrifuge tubes and stored at −20° C. For the detection, 30 μL of the plasma supernatant sample was taken, and 200 μL of an internal standard solution was added. The mixture was centrifuged at 3000 rpm for 10 minutes. Then, 100 μL of the supernatant solution was diluted with water at a 1:1 ratio and then injected with an injection volume of 5 μL. The concentration of the compounds to be tested in the plasma sample was analyzed by liquid chromatography-tandem mass spectrometry (LC-MS/MS). Plasma concentration-time data for individual animals were analyzed using Sciex Analyst software. The non-compartment model was introduced into the concentration analysis, and pharmacokinetic parameters (Cl_obs, Cmax and AUClast) of the compounds to be tested were calculated using WinNonlin (version 4.1; pHarsight) software.

The nature of data set [4]: Kinetic solubility experiment. The class given is physicochemical. Conditions: buffer, kinetic from dmso stock. As for the experimental part:
1. Preparation of Solutions/Buffers at Different pH Values
• Solution A: 17.42 g of K2HPO4 was weighed and dissolved in 1 L of ultrapure water. • Solution B: 13.65 g of KH2PO4 was weighed and dissolved in 1 L of ultrapure water.
A certain mass of substance to be tested was accurately weighed and dissolved in a certain volume of DMSO to obtain a 20 mM or 10 mM stock solution.
An acetonitrile stopping solution containing 1 ng/mL of labetalol and glibenclamide was prepared.
3. Incubation System (n=3)
The above-mentioned solutions were placed in a 96-well plate, respectively and shaken in a thermostatic oscillator for 2 hours (37° C., 150 rpm).
4. Control solution: 200 μM control solution of the substance to be tested was prepared in methanol. 5. Sample treatment
At a predetermined time, the 96-well plate was placed in a centrifuge and centrifuged at 4100 rpm for 15 minutes. A certain volume of the supernatant and a certain volume of control solution were respectively taken into 19 times volume of water containing 70% acetonitrile that has been previously added. The mixture was uniformly mixed, diluted 20 times with an internal standard stop solution and shaken in a thermostatic oscillator at 700 rpm at room temperature for 5 min. Further dilution may be necessary depending on the sensitivity of the compound, and sample analysis was performed by LC-MS/MS.
The ratio of compound peak area to internal standard peak area was used for calculation. According to the concentration relationship between the compound in the buffer and the control solution, the calculated concentration was the kinetic solubility, and the calculation formula was as follows:
Solubility(μg/mL)=mass spectral peak area of the compound to be tested in buffers at different pHs×200μM×molecular weight of the compound to be tested(MW)/mass spectral peak area of the compound to be tested in methanol/1000;

Where [5] appears, read: both sexes, dog, plasma, PO, 5 mg/kg.

A word on the IC50: it is the midpoint of a concentration-inhibition curve. What is called AUC(0-t) is exposure summed from dosing to a finite time, without extrapolation to infinity. Usually Cmax stands for the maximum level reached in the sampled fluid or tissue. As a reminder, the solubility is the dissolved amount per volume that the medium holds. Higher therefore signals much dissolved substance.

Values after ≈ are worked out from the molar mass of the structure shown. A value given as a limit tells only on which side of the number the result lay.

`N#Cc1ccnc(N2C(=O)CC[C@H]2C(=O)N(c2cncc(F)c2)[C@H](C(=O)NC2CC(F)(F)C2)c2ccccc2Cl)c1` [AG-120]: the “patients in whom a decrease in α-hydroxyglutaric acid (2-HG) levels was observed” value in the data set with mutant IDH1 was 98%.
Regarding `C[C@@H](Nc1nc(N[C@H](C)C(F)(F)F)nc(-c2cc(Cl)c(N)c(Cl)n2)n1)C(F)(F)F` [Example 1], the IC50 at IDH1^R132H [1] (numeric values) was determined as 143 nM; on IDH1^R132H [2] (numeric values) it was 26 nM; on IDH2^R140Q (numeric values), 128 nM.
As for `Cc1cc(-c2nc(N[C@H](C)C(F)(F)F)nc(N[C@H](C)C(F)(F)F)n2)nc(Cl)c1N` [Example 7, 6-(5-amino-6-chloro-4-methylpyridin-2-yl)-N^2,N^4-bis((R)-1,1,1-trifluoropropyl-2-yl)-1,3,5-triazine-2,4-diamine], the IC50 on IDH1^R132H [1] (class symbols) is greater than 1000 nM; on IDH1^R132H [2] (class symbols), 50 to 100 nM; at IDH2^R140Q (class symbols), 100 to 1000 nM.
The matching figures for `C[C@@H](Nc1nc(N[C@H](C)C(F)(F)F)nc(-c2cc(C(F)F)c(N)c(Cl)n2)n1)C(F)(F)F` [Example 8, 6-(5-amino-6-chloro-4-(difluoromethyl)pyridin-2-yl)-N^2,N^4-bis((R)-1,1,1-trifluoroprop-2-yl)-1,3,5-triazine-2,4-diamine]: greater than 1000 nM, 100 to 1000 nM and 100 to 1000 nM.
Turning to `C[C@@H](Nc1nc(N[C@H](C)C(F)(F)F)nc(-c2cc(F)c(Br)c(Cl)n2)n1)C(F)(F)F` [Example 18, 6-(5-bromo-6-chloro-4-fluoropyridin-2-yl)-N^2,N^4-bis((R)-1,1,1-trifluoroprop-2-yl)-1,3,5-triazine-2,4-diamine], the values for the half-maximal inhibitory concentration (IC50) on IDH1^R132H [1] (class symbols), on IDH1^R132H [2] (class symbols) and at IDH2^R140Q (class symbols) were 50 to 100 nM, greater than 1000 nM and 50 to 100 nM, respectively.
In the case of `C[C@@H](Nc1nc(N[C@H](C)C(F)(F)F)nc(-c2cc(Cl)c(O)c(Cl)n2)n1)C(F)(F)F` [Example 19, 6-(4,6-dichloro-5hydroxylpyridin-2-yl)-N^2,N^4-bis((R)-1,1,1-trifluoroprop-2-yl)-1,3,5-triazine-2,4-diamine], the IC50 is 50 to 100 nM on IDH1^R132H [1] (class symbols), greater than 1000 nM at IDH1^R132H [2] (class symbols) and 50 to 100 nM on IDH2^R140Q (class symbols).
In the case of `C[C@@H](Nc1nc(N[C@H](C)C(F)(F)F)nc(-c2cc(F)c(N)c(F)n2)n1)C(F)(F)F` [Example 23, 6-(5-amino-4,6-difluoropyridin-2-yl)-N^2,N^4-bis((R)-1,1,1-trifluoroprop-2-yl)-1,3,5-triazine-2,4-diamine], the IC50 at IDH1^R132H [1] (class symbols) is 100 to 1000 nM; on IDH1^R132H [2] (class symbols), no more than 50 nM; on IDH2^R140Q (class symbols), 100 to 1000 nM.
`C[C@@H](Nc1nc(N[C@H](C)C(F)(F)F)nc(-c2cccc(Cl)n2)n1)C(F)(F)F` [compound 1, reference compound] showed a Cl_obs in data set [3] (IV, 1 mg/kg) of 24.2 mL/min/kg. Further, the AUC(0-t) in data set [3] (both sexes, dog, plasma, IV, 1 mg/kg) stood at 653 ng·h/mL; in data set [3] (setting [5]), 2160 ng·h/mL. In data set [3] (setting [5]), this compound registered a Cmax of 658 ng/mL. For the same compound, the solubility at 2 h is 1.6 µg/mL (≈ 3.86 µM) in data set [4] (aqueous buffer, pH = 3.0, 37° C.); 1.4 µg/mL (≈ 3.38 µM) in data set [4] (aqueous buffer, pH = 5.0, 37° C.); 0.8 µg/mL (≈ 1.93 µM) in data set [4] (aqueous buffer, pH = 7.4, 37° C.); 39.6 µg/mL (≈ 95.5 µM) in data set [4] (simulated gastric fluid, pH = 1.0, 37° C.).
